Our source for the inhibition values is EP0429987B1, “5,11-Dihydro-6H-dipyrido[3,2-b:2',3'-e] [1,4]diazepines and their use in the prevention or treatment of HIV infection” (priority 1989, dated 1991).

The target in the assay is T1, HIV-1 RT (Human immunodeficiency virus type 1 group M subtype B, UniProt P03367).
T1 construct: Reverse transcriptase enzyme from the LAV strain of Human Immunodeficiency Virus (HIV-1) (1) was isolated; made in house; host or cells: E. coli JM109, clone pBRTprtl+ in vector pIBI21 (lac promoter, IPTG induction)
Description: Reverse Transcriptase (RT) Assay: inhibition of RNA-dependent DNA polymerase activity. It counts as biochemical. To be noted: for inhibition at 1 µM: read-out: RT Assay % inhibition; for inhibition at 10 µg/mL: read-out: RT Assay % inhibition @ 10 µg/ml. The source says:
Utilizing the Reverse Transcriptase (RT) Assay described below, compounds can be tested for their ability to inhibit the RNA-dependent DNA polymerase activity of HIV-1 RT.
Among the enzymes for which Human Immunodeficiency Virus (HIV-1) encodes is a reverse transcriptase (1), so-named because it transcribes a DNA copy from an RNA template. This activity can be quantitatively measured in a cell-free enzyme assay, which has been previously described (2), and is based upon the observation that reverse transcriptase is able to use a synthetic template [poly r(C) primed with oligo d(G)] to transcribe a radio-labelled, acid-precipitable DNA strand utilizing ^3H-dGTP as a substrate.
Reverse transcriptase enzyme from the LAV strain of Human Immunodeficiency Virus (HIV-1) (1) was isolated from the bacterial strain JM109 (3) expressing the DNA clone pBRTprtl+ (2) which is under the control of the lac promotor in the expression vector pIBI21 (4). An overnight culture grown in 2XYT medium (37°C, 225 rpm) (5) supplemented with 100 µg/ml ampicillin for positive selection is inoculated at a 1:40 dilution into M9 medium supplemented with 10µg/ml thiamine, 0.5% casamino acids, and 50 µg/ml ampicillin (5). The culture is incubated (37°C, 225 rpm) until it reaches an OD540 of 0.3-0.4. At that time the repressor inhibitor IPTG (isopropyl β-D-thiogalactopyranoside) is added to 0.5mM, and the mixture is incubated for 2 additional hours. Bacteria are pelleted, resuspended in a 50mM Tris, 0.6mM EDTA, 0.375M NaCl buffer and digested by the addition of lysozyme (1mg/ml) for 30 minutes on ice. The cells are lysed by the addition of 0.2% NP-40 and brought to 1M NaCl.
After removal of the insoluble debris by centrifugation, the protein is precipitated by the addition of 3 volumes of saturated aqueous ammonium sulfate. The enzyme is pelleted, resuspended in RT buffer (50mM Tris pH 7.5, 1mM EDTA, 5mM DTT, 0.1% NP-40, 0.1M NaCl, and 50% glycerol), and stored at -70°C for further use.
The 2X concentrated stock reaction mixture is aliquoted and stored at -20°C. […] This enzyme assay has been adapted to a 96 well microtiter plate system, and has been previously described (6). Tris buffer (50 mM, pH 7.4), vehicle (solvent diluted to match the compound dilution), or compounds in vehicle are dispensed into 96-well microtiter plates (10µl/well; 3 wells/ compound). The HIV-1 RT enzyme is thawed, diluted in 50mM Tris pH 7.4 so that fifteen µl of diluted enzyme contain 0.001 Unit (one unit is that amount of enzyme to transform 1 micromole of substrate per minute at 25°C), and fifteen µl are dispensed per well. Twenty µl of 0.12-0.5M EDTA are added to the first three wells of the microtiter plate. EDTA chelates the Mg^++ present and prevents reverse transcription. This group serves as background polymerization which is subtracted from all other groups. Twenty-five µl of the 2X reaction mixture are added to all wells and the assay is allowed to incubate at room temperature for 60 minutes. The assay is terminated by precipitating the DNA in each well with 50µl of 10% trichloracetic acid (TCA) (10% w/v) in sodium pyrophosphate (1% w/v). The microtiter plate is incubated for 15 minutes at 4°C and the precipitate is fixed onto #30 glass fiber paper (Schleicher & Schuell) using a Skatron semi-automatic harvester. The filters are then washed with additional TCA (5%) containing sodium pyrophosphate (1%), rinsed with aqueous ethanol (70%), dried, and transferred to scintillation vials (6). Each vial receives 2 mls of scintillation cocktail and is counted in a Beckman beta counter.
The calculation for percent inhibition is as follows: %inhibition =(CPM Mean Test Value - CPM Mean Control Value X100)/(CPM Mean Control Value) [formula]

Each structure is given as a SMILES string. Read-outs that look alike come from different tables or passages of the source.

With `C=COC(=O)N1C(=O)c2cccnc2N(C2CC2)c2nccc(C)c21` [Example 52], the inhibition at 1 µM (@ 1µM (footnote *)) was determined as 72%.
`COCN1C(=O)c2cccnc2N(COC)c2nccc(C)c21` [Example 29]: the inhibition at 10 µg/mL came to 0%.
As for `CN1C(=O)c2cccnc2N(C#N)c2ncccc21` [Example 43], the inhibition at 10 µg/mL is 44%.
On the same count and under the same terms, the figure for `CCN1c2ncccc2C(=O)Nc2c(C(F)(F)F)cc(C)nc21` [Example 1, 5,11-Dihydro-11-ethyl-2-methyl-4-trifluoromethyl-6H-dipyrido-[3,2-b:2',3'-e][1,4]diazepin-6-one] is 100%.
In the case of `O=C1Nc2cccnc2N(C2CCCC2)c2ncccc21` [Example 24], the inhibition at 1 µM (@ 1µM (footnote *)) was found to be 35%.
On the same count and under the same terms, the figure for `CCN1c2ncccc2C(=O)N(C)c2cc(Cl)c(N)nc21` [Example 49] is 52%.
In the case of `CN1C(=O)c2cccnc2N(CC2CC2)c2ncccc21` [Example 20], the inhibition at 10 µg/mL was 93%.
Take `CCN1c2ncccc2C(=O)N(C)c2ccc(N3CC=CC3)nc21` [Example 26]: the inhibition at 1 µM (@ 1µM (footnote *)) amounted to 86%.
In the case of `CN1C(=O)c2cccnc2N(C2CCC2)c2ncccc21` [Example 32], the inhibition at 10 µg/mL came to 100%.
As for `CCN1c2ncc([N+](=O)[O-])cc2C(=O)N(C)c2cc(Cl)c([N+](=O)[O-])nc21` [Example 40], the inhibition at 1 µM came out at 0%.
On the same count and under the same terms, the figure for `Cc1ccnc2c1NC(=S)c1cccnc1N2C1CC1` [Example 42, 5,11 Dihydro-6H-11-cyclopropyl-4-methyl-dipyrido[3,2-b:2',3'-e][1,4]diazepin-6-thione] is 90%.
On to `O=C1Nc2c(Cl)ccnc2N(C2CC2)c2ncccc21` [Example 33], for which, where the note is “@ 1µM (footnote *)”, the inhibition at 1 µM came out at 83%.
Turning to `COc1ccnc2c1NC(=O)c1cccnc1N2C1CC1` [Example 35], the inhibition at 10 µg/mL is 91%.
On to `CCN1c2ncccc2C(=O)Nc2c1nc(N1CCCC1)c(Cl)c2C` [Example 64], for which the inhibition at 1 µM (@ 1µM (footnote *)) was determined as 94%.
On the same count and under the same terms, next, `CCN1c2nc(N(C)C)ccc2NC(=O)c2cccnc21` [Example 63]: 98%.
As to `CN1C(=O)c2cccnc2N(C(C)(C)C)c2ncccc21` [Example 15], the inhibition at 10 µg/mL amounted to 87%.
Regarding `C=CCN1C(=O)c2cccnc2N(C2CC2)c2nccc(C)c21` [Example 50], under “@ 1µM (footnote *)”, the inhibition at 1 µM is 44%.
Still for that read-out and setting: next, `CCN1c2ncccc2C(=O)N(C)c2ccc(N(C)C)nc21` [Example 60]: 90%; `CCN1c2ncccc2C(=O)N(C)c2ccc(N3CCOCC3)nc21` [Example 56]: 68%.
The same measure, in the same setting: next, `CCN1c2ncccc2NC(=O)c2c(C)cc(C)nc21` [Example 27]: 2%; `CON1C(=O)c2cccnc2N(C2CC2)c2nccc(C)c21` [Example 53]: 17%.
For the compound `Cc1cc(C)c2c(n1)N(C1CC1)c1ncccc1C(=O)N2` [Example 10], the inhibition at 1 µM came out at 85%.
Regarding `CCN1c2ncccc2C(=O)Nc2c(C(F)(F)F)cc(Cl)nc21` [Example 30], the inhibition at 10 µg/mL was 100%.
Take `CCc1ccnc2c1NC(=O)c1cccnc1N2C1CC1` [Example 11]: the inhibition at 1 µM (@ 1µM (footnote *)) was 76%.
On the same count and under the same terms, next, `CCN1c2ncccc2C(=O)N(C)c2ccc(N3CCCCC3)nc21` [Example 57]: 66%.
Consider `CCN1c2ncccc2C(=O)N(C)c2cc(C)c(C)nc21` [Example 22], for which the inhibition at 10 µg/mL came out at 100%.
Same read-out and setting: next, `CC[C@H](C)N1c2ncccc2NC(=O)c2cccnc21` [Example 23]: 88%.
`CCN1c2ncc(N)cc2C(=O)N(C)c2cc(N)cnc21` [Example 51]: the inhibition at 1 µM (@ 1µM (footnote *)) was determined as 20%.
As to `O=C1Nc2cccnc2N(C2CC2)c2ncccc21` [Example 18], the inhibition at 10 µg/mL is 99%.
In the case of `CN(C)CCN1C(=O)c2cccnc2N(C2CC2)c2ncccc21` [Example 59], the inhibition at 1 µM (@ 1µM (footnote *)) amounted to 8%.
With `CCN1c2ncccc2C(=NOC)Nc2c(C)cc(C)nc21` [Example 67, 5,11-Dihydro-11-ethyl-6-methoxyimino-2,4-dimethyl-6H-dipyrido[3,2-b:2',3'-e][1,4]diazepine], the inhibition at 1 µM amounted to 88%.
As to `Cc1ccnc2c1N(O)C(=O)c1cccnc1N2C1CC1` [Example 4, 11-Cyclopropyl-5,11-dihydro-5-hydroxy-4-methyl-6H-dipyrido[3,2-b:2',3'-e][1,4]diazepin-6-one], the inhibition at 1 µM (@ 1µM (footnote *)) came to 36%.
The same measure, in the same setting: next, `Cc1cc(Cl)nc2c1NC(=O)c1cccnc1N2C1CC1` [Example 13]: 90%; `CN1C(=O)c2cccnc2N(C2CCCC2)c2ncccc21` [Example 28]: 34%.
Take `CN1C(=O)c2cccnc2N(S(C)(=O)=O)c2ncccc21` [Example 48]: the inhibition at 10 µg/mL was determined as 77%.
On the same count and under the same terms, next, `CCN1c2ncccc2C(=NC#N)Nc2c(C)cc(C)nc21` [Example 66, 6-Cyanoimino-5,11-dihydro-11-ethyl-2,4-dimethyl-6H-dipyrido[3,2-b:2',3'-e][1,4]diazepine]: 100%.
As to `CCN1c2ncccc2C(=O)N(C)c2c(C)cc(N3CCCC3)nc21` [Example 25], the inhibition at 1 µM (@ 1µM (footnote *)) stood at 94%.
Under “@ 0.5µM”, `CC(=O)N1C(=O)c2cccnc2N(C2CC2)c2nccc(C)c21` [Example 54] showed an inhibition at 0.5 µM of 30%.
Turning to `CCN1c2ncccc2C(=O)N(C)c2ccc(NCc3ccc(OC)cc3)nc21` [Example 55], the inhibition at 1 µM (@ 1µM (footnote *)) is 61%.
In the case of `O=C1Nc2c(CO)ccnc2N(C2CC2)c2ncccc21` [Example 38], where the note is “@ 1µM (footnote *)”, the inhibition at 1 µM turned out to be 34%.
The same measure, in the same setting: next, `C=CCNc1ccc2c(n1)N(CC)c1ncccc1C(=O)N2C` [Example 37]: 70%; `CCN1c2ncc(N=[N+]=[N-])cc2C(=O)N(C)c2cccnc21` [Example 16]: 63%.
As to `CC(C)N1c2ncccc2NC(=O)c2cccnc21` [Example 17], the inhibition at 10 µg/mL amounted to 99%.
With `CCNc1ccc2c(n1)N(CC)c1ncccc1C(=O)N2C` [Example 61], the inhibition at 1 µM (@ 1µM (footnote *)) stood at 75%.
As for `CCN1c2ncc([N+](=O)[O-])cc2C(=O)N(C)c2cc([N+](=O)[O-])cnc21` [Example 39], the inhibition at 1 µM was 0%.
On to `Cc1ccnc2c1NC(=O)c1c(O)ccnc1N2C1CC1` [Example 41], for which the inhibition at 1 µM (@ 1µM (footnote *)) is 32%.
Turning to `CCc1ccnc2c1NC(=O)c1cccnc1N2C1CCC1` [Example 9], under “@ 1µM (footnote *)”, the inhibition at 1 µM was 75%.
Still for that read-out and setting: the figure for `CCN1c2ncccc2C(=O)N(C)c2ccc(N(C)Cc3ccc(OC)cc3)nc21` [Example 36] is 64%.
Consider `CCN1c2ncccc2NC(=O)c2c1nc(C)c(Cl)c2C` [Example 46], for which the inhibition at 10 µg/mL worked out at 44%.
Consider `CN1C(=O)c2cccnc2N(C2CCCCC2)c2ncccc21` [Example 44], for which the inhibition at 1 µM (@ 1µM (footnote *)) amounted to 90%.
For `CC[C@@H](C)N1c2ncccc2NC(=O)c2cccnc21` [Example 21], the inhibition at 10 µg/mL was determined as 85%.
Consider `CCN1c2ncccc2C(=O)N(C)c2cc(Cl)c([N+](=O)[O-])nc21` [Example 8], for which the inhibition at 1 µM (@ 1µM (footnote *)) was determined as 40%.
On the same count and under the same terms, next, `O=C1Nc2cccnc2N(C2CCCCC2)c2ncccc21` [Example 45]: 35%.
On to `O=C1Nc2cccnc2N(C2CCC2)c2ncccc21` [Example 31], for which the inhibition at 10 µg/mL worked out at 99%.
Consider `Cc1ccnc2c1N(C)C(=O)c1cccnc1N2C1CC1` [Example 19], for which the inhibition at 1 µM (@ 1µM (footnote *)) came to 50%.
As to `CCN1c2ncc([N+](=O)[O-])cc2C(=O)N(C)c2cccnc21` [Example 62], the inhibition at 1 µM (@ 1µM (footnote *)) worked out at 0%.
